What was measured:
Assay in all cases: biochemical
[1] = target: T1, panel of 374 wild-type kinases (Homo sapiens, UniProt P17948); conditions: read-out: % Enzyme Activity (relative to DMSO controls), FLT1/VEGFR1
T1 construct: purchased Reaction Biology Corporation

[2] = target: T2, panel of 374 wild-type kinases (Homo sapiens, UniProt Q32MK0); conditions: read-out: % Enzyme Activity (relative to DMSO controls), MYLK3
T2 construct: purchased Reaction Biology Corporation
T2 sequence (Q32MK0 1-819): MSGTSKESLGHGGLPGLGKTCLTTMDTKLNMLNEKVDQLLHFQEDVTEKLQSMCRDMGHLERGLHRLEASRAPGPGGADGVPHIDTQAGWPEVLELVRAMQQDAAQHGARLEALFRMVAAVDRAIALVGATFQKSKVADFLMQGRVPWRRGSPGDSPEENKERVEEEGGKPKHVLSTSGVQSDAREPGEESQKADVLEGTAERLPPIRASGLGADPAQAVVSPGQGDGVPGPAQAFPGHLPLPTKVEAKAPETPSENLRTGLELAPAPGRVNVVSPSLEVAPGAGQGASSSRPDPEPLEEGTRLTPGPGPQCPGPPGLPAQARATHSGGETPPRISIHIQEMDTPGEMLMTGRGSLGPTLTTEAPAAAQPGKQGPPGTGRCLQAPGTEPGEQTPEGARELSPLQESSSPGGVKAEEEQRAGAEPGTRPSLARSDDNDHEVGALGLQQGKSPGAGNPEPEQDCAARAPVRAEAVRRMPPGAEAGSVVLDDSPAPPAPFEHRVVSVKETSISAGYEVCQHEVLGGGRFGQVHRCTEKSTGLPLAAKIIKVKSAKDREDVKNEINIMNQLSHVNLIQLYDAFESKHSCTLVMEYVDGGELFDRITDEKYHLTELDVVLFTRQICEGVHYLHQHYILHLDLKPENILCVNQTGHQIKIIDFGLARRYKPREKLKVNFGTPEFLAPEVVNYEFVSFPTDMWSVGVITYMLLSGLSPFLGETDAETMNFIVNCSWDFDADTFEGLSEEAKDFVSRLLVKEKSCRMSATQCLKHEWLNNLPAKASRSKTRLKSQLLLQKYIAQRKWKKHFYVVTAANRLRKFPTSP

[3] = target: T3, panel of 374 wild-type kinases (Homo sapiens, UniProt Q9H093); conditions: read-out: % Enzyme Activity (relative to DMSO controls), kinase SNARK/NUAK2
T3 construct: purchased Reaction Biology Corporation
T3 sequence (Q9H093 1-628): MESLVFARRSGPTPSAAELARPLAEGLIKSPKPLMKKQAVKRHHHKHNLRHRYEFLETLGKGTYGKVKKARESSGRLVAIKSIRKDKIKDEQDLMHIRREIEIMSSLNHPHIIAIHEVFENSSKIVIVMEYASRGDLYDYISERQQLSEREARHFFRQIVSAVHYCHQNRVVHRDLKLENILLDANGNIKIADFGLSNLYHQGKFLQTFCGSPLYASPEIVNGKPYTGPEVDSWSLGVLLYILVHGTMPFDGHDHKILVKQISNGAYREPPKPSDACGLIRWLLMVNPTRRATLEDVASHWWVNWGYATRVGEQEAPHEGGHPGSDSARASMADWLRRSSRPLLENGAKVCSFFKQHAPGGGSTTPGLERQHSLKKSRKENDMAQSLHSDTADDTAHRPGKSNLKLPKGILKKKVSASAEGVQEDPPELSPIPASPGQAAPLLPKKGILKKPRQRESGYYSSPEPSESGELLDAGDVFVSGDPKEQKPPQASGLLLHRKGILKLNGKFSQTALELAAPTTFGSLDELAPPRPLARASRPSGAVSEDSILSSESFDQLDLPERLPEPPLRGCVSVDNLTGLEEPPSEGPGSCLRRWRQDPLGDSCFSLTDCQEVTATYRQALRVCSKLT

[4] = target: T4, panel of 374 wild-type kinases (Homo sapiens, UniProt P29376); conditions: kinase TYK1/LTK, read-out: % Enzyme Activity (relative to DMSO controls)
T4 construct: purchased Reaction Biology Corporation
T4 sequence (P29376 17-864): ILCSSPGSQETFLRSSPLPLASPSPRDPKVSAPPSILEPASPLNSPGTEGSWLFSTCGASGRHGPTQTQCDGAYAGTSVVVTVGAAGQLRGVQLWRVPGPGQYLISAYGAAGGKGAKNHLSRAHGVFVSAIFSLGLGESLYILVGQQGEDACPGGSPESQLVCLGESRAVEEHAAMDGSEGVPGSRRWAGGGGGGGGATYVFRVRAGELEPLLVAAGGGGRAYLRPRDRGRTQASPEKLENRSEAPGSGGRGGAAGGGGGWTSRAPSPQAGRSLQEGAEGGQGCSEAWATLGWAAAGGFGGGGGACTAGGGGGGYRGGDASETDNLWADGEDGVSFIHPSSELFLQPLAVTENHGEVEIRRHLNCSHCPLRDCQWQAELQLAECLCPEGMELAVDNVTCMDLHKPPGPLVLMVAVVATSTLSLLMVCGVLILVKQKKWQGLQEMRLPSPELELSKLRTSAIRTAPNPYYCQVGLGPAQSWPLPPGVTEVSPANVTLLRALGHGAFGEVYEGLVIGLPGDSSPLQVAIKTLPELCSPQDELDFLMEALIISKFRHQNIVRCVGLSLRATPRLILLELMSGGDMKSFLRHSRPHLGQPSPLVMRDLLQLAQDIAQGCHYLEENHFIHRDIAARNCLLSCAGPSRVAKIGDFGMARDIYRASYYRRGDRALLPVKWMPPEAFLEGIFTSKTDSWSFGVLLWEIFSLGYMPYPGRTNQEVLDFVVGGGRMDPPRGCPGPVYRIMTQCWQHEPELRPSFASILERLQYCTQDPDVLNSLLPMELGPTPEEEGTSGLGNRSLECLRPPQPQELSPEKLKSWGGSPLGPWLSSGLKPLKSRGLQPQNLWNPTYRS

[5] = target: T5, panel of 374 wild-type kinases (Homo sapiens, UniProt P51813); conditions: read-out: % Enzyme Activity (relative to DMSO controls), BMX/ETK
T5 construct: purchased Reaction Biology Corporation
T5 sequence (P51813 1-675): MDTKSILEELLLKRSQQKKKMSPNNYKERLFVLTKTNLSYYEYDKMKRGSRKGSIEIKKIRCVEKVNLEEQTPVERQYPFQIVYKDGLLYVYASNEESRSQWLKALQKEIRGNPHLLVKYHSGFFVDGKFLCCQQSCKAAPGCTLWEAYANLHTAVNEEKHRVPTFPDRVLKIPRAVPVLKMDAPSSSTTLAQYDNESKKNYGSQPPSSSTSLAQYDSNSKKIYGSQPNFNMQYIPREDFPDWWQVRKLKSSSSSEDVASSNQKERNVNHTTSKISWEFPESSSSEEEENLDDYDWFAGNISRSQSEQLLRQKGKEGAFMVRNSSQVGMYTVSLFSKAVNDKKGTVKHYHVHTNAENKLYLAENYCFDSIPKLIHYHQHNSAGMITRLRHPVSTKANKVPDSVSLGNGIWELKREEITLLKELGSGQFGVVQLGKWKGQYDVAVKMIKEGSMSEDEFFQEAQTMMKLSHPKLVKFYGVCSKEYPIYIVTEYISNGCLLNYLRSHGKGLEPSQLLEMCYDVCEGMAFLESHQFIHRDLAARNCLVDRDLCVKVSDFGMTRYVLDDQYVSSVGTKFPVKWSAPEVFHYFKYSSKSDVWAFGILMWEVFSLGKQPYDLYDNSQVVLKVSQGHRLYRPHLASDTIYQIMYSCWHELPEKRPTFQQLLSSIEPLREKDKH

[6] = target: T6, panel of 374 wild-type kinases (Homo sapiens, UniProt Q8N752); conditions: read-out: % Enzyme Activity (relative to DMSO controls), CK1a1L
T6 construct: purchased Reaction Biology Corporation
T6 sequence (Q8N752 1-337): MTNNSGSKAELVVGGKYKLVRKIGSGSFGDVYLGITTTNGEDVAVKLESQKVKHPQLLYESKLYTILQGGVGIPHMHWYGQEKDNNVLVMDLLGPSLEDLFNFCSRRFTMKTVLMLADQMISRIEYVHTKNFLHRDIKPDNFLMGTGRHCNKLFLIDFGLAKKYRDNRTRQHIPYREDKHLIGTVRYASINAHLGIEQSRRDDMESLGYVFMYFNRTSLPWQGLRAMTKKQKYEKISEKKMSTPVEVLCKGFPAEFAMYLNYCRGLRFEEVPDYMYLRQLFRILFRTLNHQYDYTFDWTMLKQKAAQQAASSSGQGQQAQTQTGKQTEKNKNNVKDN

T1 sequence (P17948 27-1338): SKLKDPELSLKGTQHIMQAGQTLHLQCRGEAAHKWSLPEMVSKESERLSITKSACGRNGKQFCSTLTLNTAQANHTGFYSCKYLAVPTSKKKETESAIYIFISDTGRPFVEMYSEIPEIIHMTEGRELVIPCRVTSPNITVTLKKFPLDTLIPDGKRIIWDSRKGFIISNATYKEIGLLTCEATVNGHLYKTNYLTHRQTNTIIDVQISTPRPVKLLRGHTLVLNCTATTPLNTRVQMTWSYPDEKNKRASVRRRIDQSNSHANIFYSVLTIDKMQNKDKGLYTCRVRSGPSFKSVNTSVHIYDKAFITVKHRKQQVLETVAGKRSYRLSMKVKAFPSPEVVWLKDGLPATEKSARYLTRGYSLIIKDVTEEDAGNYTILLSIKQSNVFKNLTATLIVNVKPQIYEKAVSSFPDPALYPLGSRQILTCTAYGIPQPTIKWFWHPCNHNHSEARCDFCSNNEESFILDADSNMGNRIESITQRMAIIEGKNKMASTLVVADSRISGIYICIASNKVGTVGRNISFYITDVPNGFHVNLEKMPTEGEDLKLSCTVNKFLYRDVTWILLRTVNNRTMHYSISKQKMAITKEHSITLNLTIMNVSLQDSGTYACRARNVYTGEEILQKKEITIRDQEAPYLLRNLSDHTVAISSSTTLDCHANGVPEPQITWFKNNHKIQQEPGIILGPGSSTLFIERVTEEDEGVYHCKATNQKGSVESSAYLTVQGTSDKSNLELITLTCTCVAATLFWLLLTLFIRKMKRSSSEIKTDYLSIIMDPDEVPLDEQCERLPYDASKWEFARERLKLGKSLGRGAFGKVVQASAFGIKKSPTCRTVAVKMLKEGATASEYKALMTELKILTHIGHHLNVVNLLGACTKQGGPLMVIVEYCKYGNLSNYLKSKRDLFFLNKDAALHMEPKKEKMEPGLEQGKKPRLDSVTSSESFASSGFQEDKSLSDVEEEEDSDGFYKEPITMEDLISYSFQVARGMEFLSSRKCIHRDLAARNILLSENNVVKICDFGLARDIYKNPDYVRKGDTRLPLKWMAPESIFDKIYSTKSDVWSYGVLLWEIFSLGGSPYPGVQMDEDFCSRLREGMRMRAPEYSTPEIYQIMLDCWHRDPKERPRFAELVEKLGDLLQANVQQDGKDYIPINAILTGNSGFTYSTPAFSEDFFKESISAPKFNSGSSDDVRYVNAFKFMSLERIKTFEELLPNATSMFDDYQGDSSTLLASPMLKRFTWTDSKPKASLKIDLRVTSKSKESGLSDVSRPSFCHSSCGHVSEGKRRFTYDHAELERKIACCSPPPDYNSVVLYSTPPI

Row | Compound | remaining activity at 5 µM [1] [%] | remaining activity at 5 µM [2] [%] | remaining activity at 5 µM [3] [%] | remaining activity at 5 µM [4] [%] | remaining activity at 5 µM [5] [%] | remaining activity at 5 µM [6] [%] | remaining activity at 10 µM ([1]; 10 uM) [%] | remaining activity at 10 µM ([2]; 10 uM) [%] | remaining activity at 10 µM ([3]; 10 uM) [%] | remaining activity at 10 µM ([4]; 10 uM) [%] | remaining activity at 10 µM ([5]; 10 uM) [%] | remaining activity at 10 µM ([6]; 10 uM) [%]
1 | O=C(Nc1cnn(-c2csc(C(=O)NC3COC3)c2)c1)Nc1c(F)cccc1Cl [Compound 25, 4-(4-(3-(2-chloro-6-fluorophenyl)ureido)-1H-pyrazol-1-yl)-N-(oxetan-3-yl)thiophene-2-carboxamide] | 86.1 | 102 | 97.8 | 92.2 | 96.8 | 81.1 | – | – | – | – | – | –
2 | O=C(Nc1cnn(-c2csc(C(=O)NC3COC3)c2)c1)Nc1ccccc1Cl [Compound 17, 4-(4-(3-(2-chlorophenyl)ureido)-1H-pyrazol-1-yl)-N-(oxetan-3-yl)thiophene-2-carboxamide] | 101 | 95.1 | 99.8 | 99.2 | 106 | 109 | – | – | – | – | – | –
3 | Cc1sc(C(=O)NC2COC2)cc1-n1cc(NC(=O)Nc2c(F)cccc2Cl)cn1 [Compound 27, 4-(4-(3-(2-chloro-6-fluorophenyl)ureido)-1H-pyrazol-1-yl)-5-methyl-N-(oxetan-3-yl)thiophene-2-carboxamide] | – | – | – | – | – | – | 84.1 | 112 | 112 | 114 | 92.9 | 105

Reference: patent publication US20240246942A1, “KINASE INHIBITORS FOR THE TREATMENT OF NEURODEGENERATIVE DISEASES” (priority 2020, published 2024)
